Data on six compounds can be found in ChEMBL document CHEMBL3351433, “Synthesis and evaluation of new 3-phenylcoumarin derivatives as potential antidepressant agents” (Bioorg Med Chem Lett, 2014).

The subject of data set [1] is Mus musculus. As to the kind of experiment: Antidepressant activity in Swiss mouse assessed as reduction of immobility time at 0.5 mg/kg, ip after 30 mins by forced swimming test relative to vehicle-treated control. Format: functional. On the set-up: scale not given: the % may be the effect or the level left. To be noted: route intraperitoneal.
Data set [2] concerns Mus musculus. The data set can be described thus: Volume of distribution in Swiss albino mouse at 10 mg/kg, ip. The data set is classed as ADME, organism-based. Also noted: dose 10 mg/kg, route intraperitoneal. To be noted: in vivo.
Data set [3] in a line: Volume of distribution in Swiss albino mouse at 1 mg/kg, iv. The data set is classed as ADME, organism-based. Also noted: dose 1 mg/kg, route intravenous. To be noted: in vivo.
The nature of data set [4]: AUC (0 to infinity) in Swiss albino mouse at 1 mg/kg, iv. Also noted: time infinity, dose 1 mg/kg, route intravenous. The data set is classed as ADME, organism-based. To be noted: plasma.
Data set [5] deals with Mus musculus. The data set can be described thus: Toxicity in Swiss mouse assessed as total distance travelled at 0.5 mg/kg, ip after 30 mins measured for 120 mins by open field locomotor activity test. The data set is classed as organism-based. Also noted: dose 0.5 mg/kg, route intraperitoneal. To be noted: in vivo, 2 h.
A short description of data set [6]: Terminal half life in Swiss albino mouse at 1 mg/kg, iv. Format: ADME, organism-based. On the set-up: dose 1 mg/kg, route intravenous. To be noted: in vivo, read-out: beta t1/2 (converted).
Data set [7] can be described thus: Clearance in Swiss albino mouse at 10 mg/kg, ip. The data set is classed as ADME, organism-based. Also noted: dose 10 mg/kg, route intraperitoneal. To be noted: in vivo.
Data set [8] deals with Mus musculus. The data set can be described thus: Antidepressant activity in Swiss mouse assessed as reduction of immobility time at 1 mg/kg, ip after 30 mins by forced swimming test relative to vehicle-treated control. Format: functional. On the set-up: scale not given: the % may be the effect or the level left. To be noted: route intraperitoneal.
The nature of data set [9]: Bioavailability in Swiss albino mouse at 10 mg/kg, ip. To be noted: in vivo, intraperitoneal.
The nature of data set [10]: Cmax in Swiss albino mouse at 1 mg/kg, iv. Also noted: dose 1 mg/kg, route intravenous. To be noted: in vivo. Format: ADME, organism-based.
Data set [11] in a line: AUC (0 to infinity) in Swiss albino mouse at 10 mg/kg, ip. The data set is classed as ADME, organism-based. Also noted: time infinity, dose 10 mg/kg, route intraperitoneal. To be noted: plasma.
The subject of data set [12] is Mus musculus. The data set can be described thus: Antidepressant activity in Swiss mouse assessed as reduction of immobility time at 0.5 mg/kg, ip by tail suspension test relative to vehicle-treated control. The data set is classed as functional. Also noted: scale not given: the % may be the effect or the level left. To be noted: route intraperitoneal.
In data set [13] the test system is Mus musculus. The data set can be described thus: Antidepressant activity in Swiss mouse assessed as reduction of immobility time at 0.25 mg/kg, ip after 30 mins by forced swimming test relative to vehicle-treated control. To be noted: route intraperitoneal. The data set is classed as functional. On the set-up: scale not given: the % may be the effect or the level left.

A short description of data set [14]: Clearance in Swiss albino mouse at 1 mg/kg, iv. The data set is classed as ADME, organism-based. Also noted: dose 1 mg/kg, route intravenous. To be noted: in vivo.
Data set [15] is filed under the species Mus musculus. The data set can be described thus: Toxicity in Swiss mouse assessed as effect on neuro-muscular coordination after 30 to 180 mins by rotarod test. Format: organism-based. To be noted: in vivo.
Data set [16] is described as follows: Terminal half life in Swiss albino mouse at 10 mg/kg, ip. To be noted: in vivo, read-out: beta t1/2 (converted). The data set is classed as ADME, organism-based. On the set-up: dose 10 mg/kg, route intraperitoneal.
Data set [17] concerns Mus musculus. As to the kind of experiment: Toxicity in Swiss mouse assessed as horizontal activity count at 0.5 mg/kg, ip after 30 mins measured for 120 mins by open field locomotor activity test. The data set is classed as organism-based. Also noted: dose 0.5 mg/kg, route intraperitoneal. To be noted: in vivo.
Data set [18] can be described thus: Tmax in Swiss albino mouse at 10 mg/kg, ip. The data set is classed as ADME, organism-based. On the set-up: dose 10 mg/kg, route intraperitoneal. To be noted: in vivo.
The nature of data set [19]: Cmax in Swiss albino mouse at 10 mg/kg, ip. Format: ADME, organism-based. Also noted: dose 10 mg/kg, route intraperitoneal. To be noted: in vivo.
A short description of data set [20]: Oral bioavailability in rat. The data set is classed as ADME, organism-based. To be noted: in vivo.

Take `COc1ccc(-c2cc3cc(CO)cc(C(C)(C)C)c3oc2=O)cc1OC`: the Activity in the data set with Mus musculus [1] was found to be 58%.
Consider `COc1ccc(-c2cc3cc(CNc4ccc(C)cc4)cc(C)c3oc2=O)cc1`, for which the values for the Vd (with Mus musculus [2]; in [3]) were 30.45 L/kg and 18 L/kg, respectively. The AUC(0-inf) in [4] came out at 316 ng·h/mL; in [11], 2330 ng·h/mL. For the same compound, the Activity result in the data set on Mus musculus [5] was “Non-toxic”; with Mus musculus [8] it was 75%; in the data set on Mus musculus [1], 80%; in the data set with Mus musculus [12], 53%; in the data set on Mus musculus [13] it was 17%; in the data set listed under Mus musculus [15] it was “Non-toxic”. Moreover, the Activity result in the data set with Mus musculus [17] was “Non-toxic”. Further, the half-life was 3.21 h in data set [6] and 7.57 h in data set [16]. In addition, the CL/F in data set [7] was 47.2 mL/min/kg. For the same compound, the bioavailability in [9] worked out at 73.4%. Moreover, the figures for the Cmax in data set [10] and in data set [19] were 105 ng/mL and 256 ng/mL, respectively. The clearance in data set [14] was 67.3 mL/min/kg. Besides, the Tmax in data set [18] turned out to be 2 h.
`COc1ccc(-c2cc3cc(CBr)cc(C)c3oc2=O)cc1OC`: the Activity with Mus musculus [1] was 61%.
`COc1cc(-c2cc3cc(CBr)cc(C)c3oc2=O)cc(OC)c1OC`: the Activity entry in the data set on Mus musculus [5] is listed as “Non-toxic”; in the data set on Mus musculus [8], 71%; in the data set with Mus musculus [1], 73%; with Mus musculus [12], 49%; in the data set on Mus musculus [13], 16%; in the data set listed under Mus musculus [15] it was “Non-toxic”. In addition, the Activity entry with Mus musculus [17] is given as “Non-toxic”.
For the compound `COc1ccc(-c2cc3cc(CBr)cc(C(C)(C)C)c3oc2=O)cc1OC`, the Activity in the data set with Mus musculus [1] turned out to be 55%.
With `CNCCC(Oc1ccc(C(F)(F)F)cc1)c1ccccc1` (stereo not given) [FLUOXETINE], in data set [20], the bioavailability amounted to 60%.
